# From PubChem BioAssay (NCI)
#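 Interpolation was linear, between the two tested concentrations surrounding the appropriate level; five concentrations were tested over 48 hours in 96-well plates. GI50 is the concentration that inhibits growth by half. TGI: total growth inhibition.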
# Columns and labels:
# Assay in all cases: NCI-60 cell line screen, 48 h
# M14 melanoma = tested on: M14 melanoma
# UACC-62 melanoma = tested on: UACC-62 melanoma
# NCI-H23 lung = tested on: NCI-H23 lung
# MCF7 breast = tested on: MCF7 breast
# MOLT-4 leukemia = tested on: MOLT-4 leukemia
# SK-MEL-5 melanoma = tested on: SK-MEL-5 melanoma
# HOP-62 NSCLC = tested on: HOP-62 NSCLC
# OVCAR-5 ovarian = tested on: OVCAR-5 ovarian
# NCI-H522 lung = tested on: NCI-H522 lung
# UO-31 renal = tested on: UO-31 renal
Compound,TGI (M14 melanoma),TGI (UACC-62 melanoma),TGI (NCI-H23 lung),TGI (MCF7 breast),TGI (MOLT-4 leukemia),TGI (SK-MEL-5 melanoma),TGI (HOP-62 NSCLC),TGI (OVCAR-5 ovarian),TGI (NCI-H522 lung),TGI (UO-31 renal),GI50 (M14 melanoma),GI50 (UACC-62 melanoma),GI50 (NCI-H23 lung),GI50 (MCF7 breast),GI50 (MOLT-4 leukemia),GI50 (SK-MEL-5 melanoma),GI50 (HOP-62 NSCLC),GI50 (OVCAR-5 ovarian),GI50 (NCI-H522 lung),GI50 (UO-31 renal)
C=C1C(=O)O[C@@H]2C(=O)[C@@H](C)[C@@H]3C=CC(=O)[C@@]3(C)[C@@H](OC(=O)/C(C)=C\C)[C@H]12,8.2 µM,2.95 µM,9.8 µM,4.93 µM,2.65 µM,3.13 µM,24.8 µM,4.69 µM,0.25 µM,2.85 µM,,,,,,,,,,
Cc1n[nH]c(=S)n1/N=C/c1ccc(F)c(Oc2ccccc2)c1,> 100 µM,> 100 µM,> 100 µM,> 100 µM,> 100 µM,33.4 µM,> 100 µM,> 100 µM,> 100 µM,> 100 µM,36.9 µM,52.4 µM,42.2 µM,41.4 µM,47.6 µM,16.1 µM,49.4 µM,> 100 µM,48.2 µM,50 µM
O=C1C(=O)N(C(=O)c2ccc(Cl)c(Cl)c2)c2ccc(Cl)cc21,> 100 µM,> 100 µM,> 100 µM,,> 100 µM,> 100 µM,,> 100 µM,,> 100 µM,,,,,,,,,,
N.N.N.N.N.N.[I-].[Os],> 100 µM,> 100 µM,> 100 µM,,> 100 µM,> 100 µM,> 100 µM,> 100 µM,> 100 µM,> 100 µM,> 100 µM,> 100 µM,> 100 µM,,> 100 µM,> 100 µM,> 100 µM,> 100 µM,> 100 µM,> 100 µM
Cn1cccc1-c1cc(-c2cccs2)[nH]c(=O)c1C#N,,> 100 µM,> 100 µM,> 100 µM,> 100 µM,> 100 µM,> 100 µM,> 100 µM,> 100 µM,27.5 µM,,73.1 µM,> 100 µM,> 100 µM,> 100 µM,> 100 µM,83.9 µM,> 100 µM,25.9 µM,13.8 µM
C#CCOCn1cnc2c(=S)nc[nH]c21,> 100 µM,> 100 µM,> 100 µM,,,> 100 µM,> 100 µM,> 100 µM,> 100 µM,> 100 µM,,,,,,,,,,
CC1(C)OC(C(N)=O)=C(C(N)=O)O1,> 100 µM,> 100 µM,> 100 µM,,> 100 µM,,> 100 µM,> 100 µM,> 100 µM,> 100 µM,,,,,,,,,,
Cc1c(C(=O)CC(=O)C(=O)Nc2ccc(Cl)c(Cl)c2)[n+](=O)c2ccccc2n1[O-],36.5 µM,32.7 µM,96 µM,,44.5 µM,43.9 µM,> 100 µM,86.4 µM,37 µM,> 100 µM,,,,,,,,,,
CCC(C)OC(=O)C1C2CCC(O2)C1C(=O)O (stereo unspecified),> 100 µM,> 100 µM,> 100 µM,,> 100 µM,> 100 µM,> 100 µM,> 100 µM,> 100 µM,> 100 µM,,,,,,,,,,
N/C(=N\N=C\c1cccs1)NO,> 100 µM,51 µM,> 100 µM,,,,> 100 µM,> 100 µM,> 100 µM,> 100 µM,,,,,,,,,,
COc1ccc(C(c2ccc(C(C)C)cc(=O)c2O)c2ccc3cccnc3c2O)cc1 (stereo unspecified),3.06 µM,4.63 µM,1.58 µM,,> 100 µM,2.41 µM,2.29 µM,6.32 µM,10.9 µM,1.78 µM,,,,,,,,,,
CCc1ccccc1NC(=O)CCc1n[nH]c(=S)o1,> 100 µM,> 100 µM,> 100 µM,,> 100 µM,> 100 µM,> 100 µM,> 100 µM,,> 100 µM,,,,,,,,,,
CN=C1Nc2ccc(Cl)cc2C(c2ccccc2)=NN1C,> 100 µM,> 100 µM,> 100 µM,,> 100 µM,> 100 µM,> 100 µM,> 100 µM,> 100 µM,> 100 µM,,,,,,,,,,
CC(=O)NC(CCCCNC(=O)N(CCCl)N=O)C(=O)NCc1ccccc1 (stereo unspecified),> 100 µM,> 100 µM,> 100 µM,,> 100 µM,,> 100 µM,,> 100 µM,> 100 µM,,,,,,,,,,
CC(=O)OCc1cc(OC(C)=O)cnc1COC(C)=O,> 100 µM,> 100 µM,> 100 µM,,> 100 µM,> 100 µM,> 100 µM,> 100 µM,> 100 µM,> 100 µM,,,,,,,,,,
COc1cc(-c2cc(=O)c3ccccc3o2)ccc1N,> 100 µM,> 100 µM,> 100 µM,,> 100 µM,> 100 µM,> 100 µM,> 100 µM,> 100 µM,> 100 µM,,,,,,,,,,
ClC1CCC2OOC1O2 (stereo unspecified),> 100 µM,> 100 µM,> 100 µM,,> 100 µM,> 100 µM,> 100 µM,> 100 µM,> 100 µM,> 100 µM,,,,,,,,,,
COc1cc2nc(Sc3c([N+](=O)[O-])ncn3C)[nH]c2cc1OC,> 100 µM,75.8 µM,> 100 µM,,44.4 µM,63.6 µM,> 100 µM,> 100 µM,,> 100 µM,,,,,,,,,,
Cc1ccc(S(=O)(=O)/N=c2\ssc(Nc3ccccc3)c2Cl)cc1,> 50 µM,> 50 µM,27.1 µM,,> 50 µM,12.4 µM,> 50 µM,> 50 µM,> 50 µM,> 50 µM,22.8 µM,13.5 µM,11 µM,,10.3 µM,6.2 µM,23.6 µM,21.1 µM,19.8 µM,21.3 µM
O=C(O)c1ccc(O)c(N=Nc2cc(S(=O)(=O)O)c3ccccc3c2O)c1,,,> 100 µM,,> 100 µM,> 100 µM,35.6 µM,> 100 µM,,> 100 µM,,,,,,,,,,
